The conditions of data set [1]: Human Metabolome Database; cited from earlier work.
The conditions of data set [2]: cited from earlier work.
The nature of data set [3]: Plasma stability assay and LC-MS/MS; stability in solution. The class given is in vitro ADME. As to conditions: compared with the other designed compounds. The procedure: Having described the compounds generally, including the preferred compound candidates for use in the treatment of PD, the method utilized to test and produce the compounds may now be described. […] The stability of these compounds is determined using a plasma stability assay and LC-MS/MS. The assays are utilized to assess each compound's activity and cellular permeability human dopaminergic neuronal precursor cell lines and Caco-2 cells. […] A in silico analysis may be used to predict bioavailability, BBB penetration, and PK/PD profiles in the peripheral and central nervous system.

For orientation: bioavailability means dose-corrected exposure relative to a reference, in per cent.

As to `N[C@@H](Cc1ccc(O)c(O)c1)C(=O)O` [L-Dopa, L-3,4-dihydroxyphenylalanine], in data set [1], the “lipophilicity, determined experimental value” is reported as −2.39. The bioavailability in data set [2] (after peripheral conversion and gut metabolism) was 1%. For the same molecule, the “fraction of oral dose that may reach the brain” value in data set [2] (certain formulations, at best) is 5-10%.

Turning to `N[C@@H](Cc1ccc(OC(=O)CCCC[C@@H]2CCSS2)c(O)c1)B(O)O` [RG-2], the “stability in aqueous solutions and plasma” value in data set [3] is on record as “more stable”. Take `C[Si](C)(C)CCc1ccc(C[C@@H](N)Cc2ccc(OC(=O)CCCC[C@@H]3CCSS3)c(O)c2)cc1` [RG-4]: the “stability in aqueous solutions and plasma” value in data set [3] is “more stable”. Still for that read-out and setting: in the case of `N[C@@H](Cc1ccc(OC(=O)CCCC[C@@H]2CCSS2)c(O)c1)C(=O)O` [RG-1] it was “more stable”.

The record behind these values is US20220213128A1 (RockGen Therapeutics LLC, priority 2021, published 2022).
